Results from US20260069693A1, “UROLITHINS AND T-CELL MEDIATED IMMUNE RESPONSE” (priority 2022, published 2026).

Tests used:
[1] = system: Pink1^−/− T cells; experiment: aCD3/aCD28 stimulation of Pink1-/- T cells in presence of UA; format: cell-based, mice
Text: UA activates mitophagy in myocytes and hippocampal neurons via a Pink1/Parkin mediated stress-response (D'Amico et al., 2021). […] Moreover, UA stabilized Parkin protein expression (FIG. 4G). To functionally confirm the dependence of UA induced TSCM formation on Pink1/Parkin mediated mitophagy, the inventors activated Pink1^−/− T cells in the presence or absence of UA. Loss of Pink1 prevented the UA-induced lysosome formation as well as the decrease in mitochondrial content (FIG. 4H, I).
(§1) Splenic murine T cells were isolated from mice aged 6-20 weeks by negative selection with EasySep mouse T cell isolation kit (Stem cell) according to the manufacturer's instructions. To monitor T cell proliferation, purified T cells were loaded with CellTrace Violet (C34557 ThermoFisher Scientific). T cell activation was initiated using αCD3/CD28 activation beads (11456D; ThermoFisher Scientific) at a ratio of 25 μl dynabeads per 0.5×10^6 T-cells. Cells were activated with 25-50 μM Urolithin A (Tocris) or DMSO in T cell activation Medium (RPMI (ThermoFisher Scientific) 10% FBS (South America origin), 10 mM Hepes (Sigma), 1× Non-Essential Amino Acid, 1 mM Sodium Pyruvate, 50 μM B-Mercaptoethanol, 100 U/ml penicillin, 100 μg/ml streptomycin and 2 mM Glutamax (ThermoFisher Scientific) for the indicated durations. In selected experiments, cells were stimulated in the presence of inhibitors, namely TCF1i (ICG-001; SelleckChem; 10 μM) and PGC-1αi (SR-18292, Sigma-Aldrich; 10 μm,). For subsequent analysis, activating beads were magnetically removed prior antibody staining. For human T cells, peripheral blood mononuclear cells were purified with a Ficoll-Paque (GE healthcare) gradient. T cells were enriched with EasySep Human T Cell Isolation Kit (StemCell) and activated with dynabead Human T-Activator CD3/CD28 for T Cell Expansion and Activation Kit (11131D; ThermoFisher Scientific), similar to murine T cell stimulation.
(§2) For flow cytometric analysis of mitochondria and lysosomes 500 μl of Mitotracker Red (200 nM; ThermoFisher) or Lysotracker Red DND-99 (75 nM; ThermoFisher) were applied followed by surface staining. To study changes in mitochondrial membrane potential, Mitoprobe TMRM kit (ThermoFisher) was used according to the manufacturer's instructions. Cell proliferation was assessed by CellTrace Violet (Invitrogen, C34557) at a concentration of 5 μM according to manufacturer's instructions. For human samples, cells were stained as described above with Fixable Viability Dye-eF780, αCD95-BV421 (DX2; 562616), αCD62L-PE (DREG-56; 555544), αCCR7-AF700 (150503; 561143), αCD45RO-APC (UCHL; 559865), αCD45RA-FITC (HI100; 555488), αCD8-PE-CF594 (RPA-T8; 562282) and αCD4-BV786 (OKT4; 566806) from BD.

[2] = system: Pgam5^−/− CD8^+ T cells; experiment: aCD3/aCD28 stimulation of Pgam5-/- T cells in presence of UA; format: cell-based, mice
Text: Next the inventors examined whether the observed upregulation of TCF1 was a result of enhanced Wnt signalling. […] To explore whether Pgam5 may be involved in UA-induced Wnt activation, the inventors examined Pgam5 localization upon UA administration. […] More importantly, Pgam5 loss blocked the UA-dependent expansion of CD44^−CD62L^+Sca1^Hi TSCM cells (FIG. 5I).
as §1, §2

[3] = system: human CD3^+ T cells; experiment: aCD3/aCD28 stimulation of human T cells in presence of UA; format: cell-based
Text: Finally, the inventors aimed to determine whether UA causes expansion of TSCM cells in human CD8^+ T cells. The inventors isolated human CD3^+ T cells from PBMCs of healthy donors and stimulated them with aCD3/aCD28 beads in vitro in the presence of UA (FIG. 6A). Indeed, UA increased the frequency of human TSCM cells based on the expression of CD45RA^+CCR7^HiCD62L^+CD95^+CD8^+ in five out of five individual donors (FIG. 6B).
as §1, with “T cells were enriched with EasySep Human T Cell Isolation Kit (StemCell) and activated with dynabead Human T-Activator CD3/CD28 for T Cell Expansion and Activation Kit (11131D; ThermoFisher Scientific), similar to murine T cell stimulation.” left out
For flow cytometric analysis of mitochondria and lysosomes 500 μl of Mitotracker Red (200 nM; ThermoFisher) or Lysotracker Red DND-99 (75 nM; ThermoFisher) were applied followed by surface staining. […] Cell proliferation was assessed by CellTrace Violet (Invitrogen, C34557) at a concentration of 5 μM according to manufacturer's instructions. […]

[4] = system: C. elegans; details: cited from earlier work
[5] = UA treated Pgam5-/- CD8+ T cells, 48 h

## O=c1oc2cc(O)ccc2c2ccc(O)cc12 [UA, Urolithin A]
[1]; Loss of Pink1, 6 h, UA 50 μM
  UA-induced lysosome formation: prevented
[1]; Loss of Pink1, 48 h, UA 50 μM
  UA-induced decrease in mitochondrial content: prevented
[1]; Pink1-/- CD8+ T cells upon UA exposure
  cytoplasmic expression of Pgam5: lack of cytoplasmic expression
[1]; Pink1-/- CD8+ T cells, 48 h, UA 50 μM
  PGC-1a: failed to enhance
[1]; Pink1-/- CD8+ T cells, 48 h, UA 25 and 50 μM
  TSCM phenotype: failed to exhibit a TSCM phenotype
[1]; Pink1-/-, 48 h, UA 50 μM
  TCF-1 in CD44-CD62L+CD8+ T cells: less
[2]; Pgam5-/- CD8+ T cells
  lysosome formation: still enhanced
  mitochondrial content: reduced
[2]; Pgam5-/- CD8+ T cells, 48 h, UA 50 μM
  PGC-1a: failed to enhance
[2]; Pgam5 loss, 48 h
  UA-dependent expansion of CD44-CD62L+Sca1Hi TSCM cells: blocked
[2]; [5]
  TCF1: failed to upregulate
  memory marker CD95: failed to upregulate
[3]; 48 h, UA 50 μM, five out of five individual donors
  frequency of human TSCM cells (CD45RA+CCR7HiCD62L+CD95+CD8+): increased
[3]; 48 h, intracellular staining
  TCF1 expression in human CD8+ T cells: increased
[3]; after 48 hours
  mitochondrial membrane potential of human CD8+ T cells: decreased
[4]
  lifespan: prolonged lifespan
  mitochondrial content: higher mitochondrial content
